Results: US20230117470A1, “SUBSTITUTED PYRAZOLE COMPOUNDS AS TOLL RECEPTOR INHIBITORS” (BRISTOL-MYERS SQUIBB COMPANY, priority 2019, published 2023)

Columns and labels:
Format in all cases: cell-based
human TLR9 = target: T1, human TLR9 (Homo sapiens, UniProt Q9NR96); assay: TLR9 inhibition reporter assay (HEK-Blue cells, SEAP reporter, ODN2006 stimulation); conditions: HEK-Blue cells overexpressing human TLR9, SEAP reporter, ODN2006 5 nM
T1 construct: host or cells: HEK-Blue cells
T1 sequence (Q9NR96 26-1032): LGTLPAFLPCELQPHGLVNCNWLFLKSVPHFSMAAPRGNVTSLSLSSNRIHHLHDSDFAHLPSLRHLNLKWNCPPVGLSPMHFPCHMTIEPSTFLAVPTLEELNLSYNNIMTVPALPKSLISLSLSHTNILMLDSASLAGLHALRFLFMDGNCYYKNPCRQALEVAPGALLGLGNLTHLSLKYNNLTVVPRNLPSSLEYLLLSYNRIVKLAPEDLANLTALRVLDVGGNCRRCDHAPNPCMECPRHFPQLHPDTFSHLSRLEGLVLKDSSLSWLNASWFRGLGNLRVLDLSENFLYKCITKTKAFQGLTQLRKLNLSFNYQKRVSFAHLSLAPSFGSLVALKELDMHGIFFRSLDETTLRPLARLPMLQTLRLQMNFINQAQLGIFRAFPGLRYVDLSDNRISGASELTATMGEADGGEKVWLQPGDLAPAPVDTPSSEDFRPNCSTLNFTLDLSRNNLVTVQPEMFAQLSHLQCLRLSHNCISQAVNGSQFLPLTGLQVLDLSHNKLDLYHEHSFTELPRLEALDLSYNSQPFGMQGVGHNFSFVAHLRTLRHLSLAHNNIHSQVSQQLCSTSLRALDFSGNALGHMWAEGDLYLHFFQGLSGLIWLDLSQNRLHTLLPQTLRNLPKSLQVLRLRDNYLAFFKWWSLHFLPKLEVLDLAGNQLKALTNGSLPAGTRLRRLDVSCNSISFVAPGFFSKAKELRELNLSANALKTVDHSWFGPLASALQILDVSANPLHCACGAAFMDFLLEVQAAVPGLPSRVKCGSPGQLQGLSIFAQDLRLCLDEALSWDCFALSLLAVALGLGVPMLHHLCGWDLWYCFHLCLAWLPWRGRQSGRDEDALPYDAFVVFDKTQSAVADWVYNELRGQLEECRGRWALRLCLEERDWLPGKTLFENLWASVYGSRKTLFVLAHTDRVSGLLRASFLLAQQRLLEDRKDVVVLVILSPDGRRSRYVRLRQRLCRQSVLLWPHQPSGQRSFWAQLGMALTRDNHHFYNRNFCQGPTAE
Outline: (§1)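 30 min RT cpd pre-incubation (0.05 nM–50 μM final dose response) → agonist: gardiquimod 7.5 μM / R848 15.9 μM / ODN2006 5 nM for TLR7/8/9 resp. → 22 h, 37° C → SEAP via detection medium. % inhibition vs agonist+DMSO and reference inhibitor controls.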

human TLR8 = target: T2, human TLR8 (Homo sapiens, UniProt Q9NR97); assay: TLR8 inhibition reporter assay (HEK-Blue cells, SEAP reporter, R848 stimulation); conditions: HEK-Blue cells overexpressing human TLR8, SEAP reporter, R848 15.9 μM
T2 construct: host or cells: HEK-Blue cells
T2 sequence (Q9NR97 27-1041): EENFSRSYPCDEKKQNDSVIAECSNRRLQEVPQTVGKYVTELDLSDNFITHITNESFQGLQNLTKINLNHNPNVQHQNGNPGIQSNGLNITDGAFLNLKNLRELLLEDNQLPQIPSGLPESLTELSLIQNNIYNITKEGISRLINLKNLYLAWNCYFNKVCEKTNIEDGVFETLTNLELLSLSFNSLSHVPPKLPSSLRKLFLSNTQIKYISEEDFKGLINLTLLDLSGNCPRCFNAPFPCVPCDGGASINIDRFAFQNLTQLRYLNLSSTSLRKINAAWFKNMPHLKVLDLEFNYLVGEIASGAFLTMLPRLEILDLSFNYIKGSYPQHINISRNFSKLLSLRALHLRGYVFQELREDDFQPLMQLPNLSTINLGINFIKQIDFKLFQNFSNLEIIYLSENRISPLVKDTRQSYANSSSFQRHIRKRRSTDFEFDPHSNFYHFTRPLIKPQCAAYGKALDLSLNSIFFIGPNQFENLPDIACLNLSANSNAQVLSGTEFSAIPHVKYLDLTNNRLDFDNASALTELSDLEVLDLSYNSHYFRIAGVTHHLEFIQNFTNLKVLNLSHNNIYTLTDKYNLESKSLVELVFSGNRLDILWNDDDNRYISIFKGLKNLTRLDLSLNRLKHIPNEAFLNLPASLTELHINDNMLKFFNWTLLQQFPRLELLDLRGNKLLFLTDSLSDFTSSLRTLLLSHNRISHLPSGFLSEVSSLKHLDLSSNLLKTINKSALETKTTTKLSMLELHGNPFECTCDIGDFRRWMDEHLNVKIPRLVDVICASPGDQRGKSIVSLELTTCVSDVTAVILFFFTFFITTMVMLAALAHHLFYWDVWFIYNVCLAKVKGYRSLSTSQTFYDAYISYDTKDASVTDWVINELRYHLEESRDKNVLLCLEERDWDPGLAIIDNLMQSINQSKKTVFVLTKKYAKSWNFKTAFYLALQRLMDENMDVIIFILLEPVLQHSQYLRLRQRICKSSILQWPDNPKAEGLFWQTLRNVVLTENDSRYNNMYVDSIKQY
Outline: as §1

human TLR7 = target: T3, human TLR7 (Homo sapiens, UniProt Q9NYK1); assay: TLR7 inhibition reporter assay (HEK-Blue cells, SEAP reporter, gardiquimod stimulation); conditions: HEK-Blue cells overexpressing human TLR7, SEAP reporter, gardiquimod 7.5 μM
T3 construct: host or cells: HEK-Blue cells
T3 sequence (Q9NYK1 27-1049): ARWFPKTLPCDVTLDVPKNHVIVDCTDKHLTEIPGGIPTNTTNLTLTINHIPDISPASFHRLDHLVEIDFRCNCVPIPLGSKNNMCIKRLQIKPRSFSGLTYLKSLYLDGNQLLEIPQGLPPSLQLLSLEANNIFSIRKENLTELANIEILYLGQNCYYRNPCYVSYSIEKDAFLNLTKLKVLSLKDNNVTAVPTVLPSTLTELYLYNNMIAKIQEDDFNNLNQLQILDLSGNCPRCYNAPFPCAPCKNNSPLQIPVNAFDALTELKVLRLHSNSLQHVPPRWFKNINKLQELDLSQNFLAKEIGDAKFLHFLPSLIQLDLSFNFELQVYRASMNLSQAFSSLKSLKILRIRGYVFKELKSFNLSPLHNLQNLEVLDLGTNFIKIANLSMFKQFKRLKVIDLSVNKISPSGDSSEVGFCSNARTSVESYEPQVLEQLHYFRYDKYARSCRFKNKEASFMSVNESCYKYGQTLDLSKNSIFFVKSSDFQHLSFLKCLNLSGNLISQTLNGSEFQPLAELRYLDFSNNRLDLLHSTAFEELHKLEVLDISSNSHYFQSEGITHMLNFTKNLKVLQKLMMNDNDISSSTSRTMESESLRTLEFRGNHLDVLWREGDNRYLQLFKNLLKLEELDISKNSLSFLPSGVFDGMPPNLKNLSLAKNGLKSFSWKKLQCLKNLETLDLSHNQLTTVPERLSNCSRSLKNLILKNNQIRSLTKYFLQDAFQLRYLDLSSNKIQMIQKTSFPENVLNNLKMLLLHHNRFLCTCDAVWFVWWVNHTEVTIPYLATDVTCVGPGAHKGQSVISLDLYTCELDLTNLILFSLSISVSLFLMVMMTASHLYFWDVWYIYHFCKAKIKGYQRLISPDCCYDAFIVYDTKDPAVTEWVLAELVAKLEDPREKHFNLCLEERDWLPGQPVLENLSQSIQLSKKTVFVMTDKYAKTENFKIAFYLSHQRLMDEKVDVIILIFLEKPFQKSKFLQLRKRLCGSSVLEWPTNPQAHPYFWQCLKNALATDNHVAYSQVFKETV
Outline: as §1

IC50 (human TLR9) | IC50 (human TLR8) | IC50 (human TLR7) | SMILES
> 50000 nM | 22.3 nM | 88.6 nM | COc1cc(-c2[nH]nc(C(=O)NCC3CCNCC3)c2C(C)C)cn2ncnc12 [Example 62]
> 50000 nM | 27.9 nM | 36.6 nM | COc1cc(-c2[nH]nc(C(=O)NC3CCNCC3)c2C(C)C)cn2ncnc12 [Example 60]
9580 nM | 23.7 nM | 23.3 nM | Cc1cc(-c2[nH]nc(C(=O)NC3CCN(CC(=O)N(C)C)CC3)c2C(C)C)cn2ncnc12 [Example 176, N-(1-(2-(dimethylamino)-2-oxoethyl)piperidin-4-yl)-4-isopropyl-5-(8-methyl-[1,2,4]triazolo [1,5-a]pyridin-6-yl)-1H-pyrazole-3-carboxamide]
32800 nM | 1.43 nM | 3.01 nM | Cc1cc(-c2[nH]nc(C(=O)NC3CNC3)c2C(C)C)cn2ncnc12 [Example 58]
7800 nM | 27.1 nM | 1.09 nM | Cc1cc(-c2[nH]nc(C(=O)N[C@H]3CC[C@H](NCc4cncnc4)CC3)c2C(C)C)cn2ncnc12 [Example 113]
3610 nM | 36.7 nM | 1.19 nM | Cc1cc(-c2[nH]nc(C(=O)N[C@H]3CC[C@@H](NC(C)C(C)C)CC3)c2C(C)C)cn2ncnc12 (stereo partly drawn) [Example 99]
15200 nM | 3.56 nM | 7.26 nM | Cc1cc(-c2[nH]nc(C(=O)NCC3CN(CC(C)(C)C)CCO3)c2C(C)C)cn2ncnc12 (stereo not drawn) [Example 144]
12800 nM | 13.5 nM | 3.03 nM | Cc1cc(-c2[nH]nc(C(=O)NCC3CN(C(C)C)CCO3)c2C(C)C)cn2ncnc12 (stereo not drawn) [Example 141]
45400 nM | 19.5 nM | 1.84 nM | Cc1cc(-c2[nH]nc(C(=O)NCC3CCNCC3)c2C(C)C)cn2ncnc12 [Example 45]
3330 nM | 2.03 nM | 5.04 nM | Cc1cc(-c2[nH]nc(C(=O)N3CCC(N(C)C)CC3)c2C(C)C)cn2ncnc12 [Example 13]
10900 nM | 0.09 nM | 1.72 nM | Cc1cc(-c2[nH]nc(C(=O)NC3CN(C)C3)c2C(C)C)cn2ncnc12 [Example 156]
287 nM | 33.9 nM | 5.52 nM | Cc1cc(-c2[nH]nc(C(=O)NCCc3ccccn3)c2C(C)C)cn2ncnc12 [Example 4]

Further lines, the molecule ahead of its results:

SMILES | IC50 (human TLR9) | IC50 (human TLR8) | IC50 (human TLR7)
COc1cc(-c2[nH]nc(-c3ccc(C4CCN(CC(C)(C)O)CC4)cc3)c2C(C)C)cn2ncnc12 [Example 319] | 19400 nM | 0.53 nM | 3.84 nM
COc1cc(-c2[nH]nc(-c3ccc(C4CCN(CC(F)(F)F)CC4)cc3)c2C(C)C)cn2ncnc12 [Example 320] | 21900 nM | 1.3 nM | 4.38 nM
Cc1cc(-c2[nH]nc(C(=O)N[C@H]3CC[C@@H](NCc4cncnc4)CC3)c2C(C)C)cn2ncnc12 [Example 102] | 3890 nM | 14 nM | 0.37 nM
COc1cc(-c2[nH]nc(C(=O)NC3CCN(CC4CCOCC4)CC3)c2CC(F)(F)F)cn2ncnc12 [Example 197] | 13100 nM | 2.08 nM | 5.35 nM
CNC(=O)CN1CCC(c2n[nH]c(-c3cc(C)c4ncnn4c3)c2C(C)C)CC1 [Example 211, 2-(4-(4-isopropyl-5-(8-methyl-[1,2,4]triazolo[1,5-a]pyridin-6-yl)-1H-pyrazol-3-yl)piperidin-1-yl)-N-methylacetamide] | 14300 nM | 0.58 nM | 0.79 nM
CCNc1ccc2nc(-c3n[nH]c(-c4cc(C)c5ncnn5c4)c3C(C)C)sc2c1 [Example 257] | 34900 nM | 0.86 nM | 13.6 nM
COc1cc(-c2[nH]nc(-c3ccc(C4CCN(C)CC4)cc3)c2C(C)C)cn2ncnc12 [Example 314] | > 50000 nM | 18.5 nM | 13.9 nM
Cc1cc(-c2[nH]nc(-c3cnc(N)cn3)c2C(C)C)cn2ncnc12 [Example 226] | 6780 nM | 0.41 nM | 0.35 nM
Cc1cc(-c2[nH]nc(C(=O)N(C)CCCN(C)C)c2C(C)C)cn2ncnc12 [Example 24] | 793 nM | 12.5 nM | 43.4 nM
CC(C)c1c(C(=O)NC2CCN(C)CC2)n[nH]c1-c1cn(C)c2ncccc12 [Example 41] | 8430 nM | 2.66 nM | 1.19 nM
Cc1cc(-c2[nH]nc(-c3ccc(C4CN(CC(C)(C)O)C4)cc3)c2C(C)C)cn2ncnc12 [Example 336, 1-(3-(4-(4-isopropyl-5-(8-methyl-[1,2,4]triazolo[1,5-a]pyridin-6-yl)-1H-pyrazol-3-yl)phenyl)azetidin-1-yl)-2-methylpropan-2-ol] | 38100 nM | 39.7 nM | 13.5 nM
Cc1cc(-c2[nH]nc(-c3ccc(C4CCNCC4)nc3)c2C(C)C)cn2ncnc12 [Example 340] | 5220 nM | 3.38 nM | 4.64 nM
